Measured values published in ChEMBL document CHEMBL1201862, “PubChem BioAssay data set” (2004).
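Cells were grown in 96-well plates and exposed to each compound for 48 hours at five concentrations; endpoints were interpolated linearly between bracketing concentrations, or set to the highest concentration if not reached. Here, GI50 denotes the concentration required for 50% inhibition of growth.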 Calls of active or inactive are those of the source. Cut-off read from the data, not from the text of the source: active = GI50 up to about 1.1 µM and inactive = higher.

Experiments:
Test in all cases: inhibition of tumour cell growth, NCI panel, 48 h
IGROV-1 = system: IGROV-1
OVCAR-8 = system: OVCAR-8
NCI-H23 = system: NCI-H23
LOX IMVI = system: LOX IMVI
SF-539 = system: SF-539
M14 = system: M14
NCI-H226 = system: NCI-H226
MDA-N = system: MDA-N
MDA-MB-435 = system: MDA-MB-435
BT-549 = system: BT-549
HT-29 = system: HT-29
OVCAR-4 = system: OVCAR-4
NCI-H460 = system: NCI-H460
MDA-MB-231 = system: MDA-MB-231
CCRF-CEM = system: CCRF-CEM
UACC-62 = system: UACC-62
HOP-92 = system: HOP-92
786-0 = system: 786-0
UO-31 = system: UO-31
HL-60 = system: HL-60
EKVX = system: EKVX
MCF7 = system: MCF7
A549 = system: A549
SN12C = system: SN12C
HCT-15 = system: HCT-15
NCI-H522 = system: NCI-H522
PC-3 = system: PC-3
MOLT-4 = system: MOLT-4
SK-MEL-28 = system: SK-MEL-28
HCC 2998 = system: HCC 2998
U-251 = system: U-251
COLO 205 = system: COLO 205
SW-620 = system: SW-620
DU-145 = system: DU-145
OVCAR-5 = system: OVCAR-5
SR = system: SR
SNB-75 = system: SNB-75
HOP-62 = system: HOP-62
K562 = system: K562
SNB-19 = system: SNB-19
A498 = system: A498
KM12 = system: KM12
NCI/ADR-RES = system: NCI/ADR-RES
OVCAR-3 = system: OVCAR-3
RXF 393 = system: RXF 393
ACHN = system: ACHN
Malme-3M = system: Malme-3M
UACC-257 = system: UACC-257
RPMI-8226 = system: RPMI-8226
SF-295 = system: SF-295
SK-MEL-5 = system: SK-MEL-5
CAKI-1 = system: CAKI-1
HCT-116 = system: HCT-116
SK-MEL-2 = system: SK-MEL-2
T47D = system: T47D
Hs-578T = system: Hs-578T
SF-268 = system: SF-268
TK-10 = system: TK-10
SK-OV-3 = system: SK-OV-3

`ClC1=NSSC1(Cl)Cl` was tested, and the GI50 (IGROV-1) was 61 µM (inactive), the GI50 (OVCAR-8) was 24.4 µM (inactive) and the GI50 (NCI-H23) was > 100 µM (inactive). The GI50 (LOX IMVI) was 40.8 µM (inactive), the GI50 (SF-539) was 40.5 µM (inactive) and the GI50 (M14) was 19.8 µM (inactive). For the same compound, the GI50 (NCI-H226) was > 100 µM (inactive), the GI50 (MDA-N) was 27.7 µM (inactive) and the GI50 (MDA-MB-435) was 41.8 µM (inactive). The GI50 (BT-549) was 41.6 µM (inactive), the GI50 (HT-29) was 30.5 µM (inactive) and the GI50 (OVCAR-4) was 44.2 µM (inactive). The GI50 (NCI-H460) was 36.9 µM (inactive), the GI50 (MDA-MB-231) was 30.8 µM (inactive) and the GI50 (CCRF-CEM) was 6.47 µM (inactive). For the same compound, the GI50 (UACC-62) was 45.7 µM (inactive), the GI50 (HOP-92) was > 10 µM (inactive) and the GI50 (786-0) was 23.6 µM (inactive). The GI50 (UO-31) was 26.7 µM (inactive), the GI50 (HL-60) was 2.4 µM (inactive) and the GI50 (EKVX) was 58.3 µM (inactive). For the same compound, the GI50 (MCF7) was 32.3 µM (inactive), the GI50 (A549) was > 100 µM (inactive) and the GI50 (SN12C) was 22.1 µM (inactive). The GI50 (HCT-15) was 18.4 µM, the GI50 (NCI-H522) was 7.6 µM (inactive) and the GI50 (PC-3) was 61.7 µM (inactive). The GI50 (MOLT-4) was 14.8 µM (inactive), the GI50 (SK-MEL-28) was > 10 µM (inactive) and the GI50 (HCC 2998) was > 100 µM (inactive). The GI50 (U-251) was 56.6 µM (inactive), the GI50 (COLO 205) was 14.7 µM (inactive) and the GI50 (SW-620) was 20.7 µM (inactive). The GI50 (DU-145) was > 100 µM (inactive), the GI50 (OVCAR-5) was 29.9 µM (inactive) and the GI50 (SR) was 21 µM (inactive). The GI50 (SNB-75) was 41.7 µM (inactive), the GI50 (HOP-62) was > 100 µM (inactive) and the GI50 (K562) was 5.9 µM (inactive). For the same compound, the GI50 (SNB-19) was 90.4 µM (inactive), the GI50 (A498) was > 100 µM (inactive) and the GI50 (KM12) was 71.1 µM (inactive). The GI50 (NCI/ADR-RES) was 34.8 µM (inactive), the GI50 (OVCAR-3) was 25.2 µM (inactive) and the GI50 (RXF 393) was 46.1 µM (inactive). For the same compound, the GI50 (ACHN) was 20.4 µM (inactive), the GI50 (Malme-3M) was 28.6 µM (inactive) and the GI50 (UACC-257) was 51.8 µM (inactive). The GI50 (RPMI-8226) was 23.5 µM (inactive), the GI50 (SF-295) was 61.5 µM (inactive) and the GI50 (SK-MEL-5) was 14.1 µM (inactive). The GI50 (CAKI-1) was 18.5 µM (inactive), the GI50 (HCT-116) was 30.6 µM (inactive) and the GI50 (SK-MEL-2) was > 100 µM (inactive).

`CC1C(=O)CC[C@@]2(C)C(=O)CCCC12O` (some centres undefined) was tested, and the GI50 (IGROV-1) was > 100 µM (inactive), the GI50 (NCI-H23) was > 100 µM (inactive) and the GI50 (LOX IMVI) was > 100 µM (inactive). The GI50 (T47D) was > 100 µM (inactive), the GI50 (SF-539) was > 100 µM (inactive) and the GI50 (M14) was > 100 µM (inactive). The GI50 (NCI-H226) was > 100 µM (inactive), the GI50 (MDA-N) was > 100 µM (inactive) and the GI50 (MDA-MB-435) was > 100 µM (inactive). The GI50 (HT-29) was > 100 µM (inactive), the GI50 (OVCAR-4) was > 100 µM (inactive) and the GI50 (NCI-H460) was > 100 µM (inactive). For the same compound, the GI50 (MDA-MB-231) was > 100 µM (inactive), the GI50 (UACC-62) was > 100 µM (inactive) and the GI50 (HOP-92) was > 100 µM (inactive). The GI50 (786-0) was > 100 µM (inactive), the GI50 (UO-31) was > 100 µM (inactive) and the GI50 (HL-60) was > 100 µM (inactive). The GI50 (EKVX) was > 100 µM (inactive), the GI50 (MCF7) was > 100 µM (inactive) and the GI50 (A549) was > 100 µM (inactive). For the same compound, the GI50 (SN12C) was > 100 µM (inactive), the GI50 (HCT-15) was greater than 100 µM and the GI50 (NCI-H522) was > 100 µM (inactive). The GI50 (PC-3) was > 100 µM (inactive), the GI50 (MOLT-4) was > 100 µM (inactive) and the GI50 (SK-MEL-28) was > 100 µM (inactive). The GI50 (HCC 2998) was > 100 µM (inactive), the GI50 (U-251) was > 100 µM (inactive) and the GI50 (COLO 205) was > 100 µM (inactive). For the same compound, the GI50 (SW-620) was > 100 µM (inactive), the GI50 (DU-145) was > 100 µM (inactive) and the GI50 (Hs-578T) was > 100 µM (inactive). For the same compound, the GI50 (OVCAR-5) was > 100 µM (inactive), the GI50 (SR) was > 100 µM (inactive) and the GI50 (HOP-62) was > 100 µM (inactive). The GI50 (K562) was > 100 µM (inactive), the GI50 (SNB-19) was > 100 µM (inactive) and the GI50 (A498) was > 100 µM (inactive). For the same compound, the GI50 (KM12) was > 100 µM (inactive), the GI50 (NCI/ADR-RES) was > 100 µM (inactive) and the GI50 (OVCAR-3) was > 100 µM (inactive). For the same compound, the GI50 (RXF 393) was > 100 µM (inactive), the GI50 (ACHN) was > 100 µM (inactive) and the GI50 (SF-268) was > 100 µM (inactive). For the same compound, the GI50 (Malme-3M) was > 100 µM (inactive), the GI50 (UACC-257) was > 100 µM (inactive) and the GI50 (RPMI-8226) was > 100 µM (inactive). For the same compound, the GI50 (SF-295) was > 100 µM (inactive), the GI50 (SK-MEL-5) was > 100 µM (inactive) and the GI50 (TK-10) was > 100 µM (inactive). The GI50 (CAKI-1) was > 100 µM (inactive), the GI50 (SK-OV-3) was > 100 µM (inactive) and the GI50 (HCT-116) was > 100 µM (inactive). The GI50 (SK-MEL-2) was > 100 µM (inactive).
